Results as given in paper PMC10761933, “Acquired and intrinsic resistance to vemurafenib in BRAF^V600E ‐driven melanoma brain metastases” (FEBS Open Bio, 2023).
Where two headings read alike, the source gives them in different places.

Assays:
[1] = Oral vemurafenib plasma pharmacokinetics in tumor‐free WT and Abcb1a/b;Abcg2−/− FVB nude mice; type: in vivo; details: mean ± SD; for Cmax / Tmax / half-life: FVB nude, mouse, plasma, po; for half-life: read-out: t 1/2 (elimination half‐life) (converted)
Description: To establish vemurafenib plasma kinetics, tumor‐free FVB WT, and Abcb1a/b;Abcg2 ^ −/− nude mice received vemurafenib orally (p.o.) by gavage at indicated doses. Elacridar (100 mg·kg^−1) was administrated p.o. by gavage 4 h before vemurafenib. Blood was sampled from the tail vein at 15 min, 1, 2, 4, 8, and 24 h after the administration. The plasma was obtained by centrifugation (5 min, 2000 g, 4 °C). Vemurafenib was extracted from plasma by diethyl ether liquid–liquid extraction. Extracts were dried using a Savant SpeedVac Concentrator (Thermo Fisher Scientific, Waltham, MA, USA), reconstituted in MeCN : water (30 : 70), and subjected to liquid chromatography/tandem mass spectrometry (LC/MS–MS) analysis. Vemurafenib‐^13C6 was used as an internal standard.
The LC–MS/MS system consisted of an API 3000 mass spectrometer (Sciex, Framingham, MA, USA) coupled to an UltiMate 3000 LC System (Dionex, Sunnyvale, CA, USA). Samples were separated using a ZORBAX Extend‐C18 column (Agilent, Santa Clara, CA, USA), preceded by a Securityguard C18 precolumn (Phenomenex, Utrecht, the Netherlands). Elution was done using a mixture of mobile phase A (0.1% formic acid in water (v/v)) and mobile phase B (methanol) in a 5 min gradient from 20% to 95% B, followed by 95% B that was maintained for 3 min and then re‐equilibrated at 20% B. Multiple reaction monitoring parameters were 490.2/383.1 (vemurafenib) and 496.2/389.1 (vemurafenib‐^13C6). System control and data analysis were done using ANALYST ® 1.6.2 software (AB Sciex, Foster City, CA, USA).
Pharmacokinetic parameters were calculated with PKSOLVER [30]. All comparisons involving more than two groups were analyzed by one‐way ANOVA followed by Bonferroni post hoc tests. Differences in fractions of ABC transporter‐expressing cells between brain and skin lesions were compared using the Binomial test in which the skin fraction was considered as expected and the brain fraction was considered as observed. Correlations were determined using simple linear regression. Kaplan–Meier curves were drawn using GRAPHPAD PRISM v7 (GraphPad Software, La Jolla, CA, USA), and statistically significant survival differences were determined using the log‐rank test. Statistical significance was accepted in all tests when P < 0.05.

[2] = test system: intracranial A375 tumors; assay: Efficacy against intracranial A375 melanoma tumors (BLI, survival); type: in vivo, mice
Description: (§1) For subcutaneous xenograft models, 30 μL of cell suspension containing 3 × 10^6 A375 cells was injected into both flanks of FVB WT and Abcb1a/b;Abcg2 ^ −/− nude mice. For xenograft MBM models, stereotactic intracranial injections (A375 and Mel57) or intracarotid injections (K1735) of melanoma cells were performed as described previously. For intracranial injections, FVB nude mice were injected intracranially with 2 μL of A375 or Mel57 cell suspension containing 1 × 10^5 cells 2 mm lateral, 1 mm anterior, and 3 mm ventral from the bregma. For intracarotid injections, 1 × 10^5 cells in 100 μL HBSS were injected in the left common carotid artery of C3H/HeN mice. Tumor growth was measured by bioluminescence imaging (BLI) for intracranial tumors and by caliper for subcutaneous tumors. The volume of subcutaneous tumors was calculated in mm^3 using the modified ellipsoid formula (volume = 0.5 × length × width^2). Bioluminescence images were acquired following i.p. D‐luciferin (150 mg·kg^−1; Promega) using an IVIS 200 or IVIS Spectrum system with LIVING IMAGE software v4.5 (both PerkinElmer, Waltham, MA, USA). Animals were stratified into treatment groups to achieve a similar mean bioluminescence reading within each cohort. The bioluminescence intensity of each individual animal on the day of the start of treatment (Day 0) was arbitrarily set at 100%. All subsequent measurements were recorded relative to this first measurement and converted to their log values. Mean ± standard error (SE) values were calculated and plotted in graphs.
(§2) For the subcutaneous tumor model, therapy was initiated 2 weeks after implantation, when the tumor volume exceeded 40 mm^3. FVB WT and Abcb1a/b;Abcg2 ^ −/− nude mice (n = 8) received 25 and 10 mg·kg^−1 of vemurafenib daily, respectively. Control mice (n = 8) received vehicle. Tumor development was assessed by caliper twice a week. For the intracranial tumor model, treatment was started about 2 weeks after intracranial injection of tumor cells, when full‐blown tumors were present in all animals. WT and Abcb1a/b;Abcg2 ^ −/− nude mice received vehicle, 25 mg·kg^−1 vemurafenib, 10 mg·kg^−1 vemurafenib plus 100 mg·kg^−1 elacridar, or 10 mg·kg^−1 vemurafenib once daily for 10 consecutive days or in a 5 days on/2 days off/5 days on schedule, as indicated in the relevant figure panels. Tumor growth was monitored by BLI every 4 or 5 days. Mice were weighed daily weighed examined for abnormalities. The mice were humanely sacrificed based on BLI results or when weight loss exceeded 20% of the initial body weight.

[3] = oral, WT mice; cited from earlier work
[4] = test system: subcutaneous A375 tumors; assay: Efficacy against subcutaneous A375 tumors (caliper); type: in vivo; details: 25 mg·kg^−1 in WT mice and 10 mg·kg^−1 in Abcb1a/b;Abcg2−/− mice, 13 consecutive days
Description: as §1, with “Bioluminescence images were acquired following i.p. D‐luciferin (150 mg·kg^−1; Promega) using an IVIS 200 or IVIS Spectrum system with LIVING IMAGE software v4.5 (both PerkinElmer, Waltham, MA, USA).” left out, “The bioluminescence intensity of each individual animal on the day of the start of treatment (Day 0) was arbitrarily set at 100%.” left out
For the subcutaneous tumor model, therapy was initiated 2 weeks after implantation, when the tumor volume exceeded 40 mm^3. […] Tumor development was assessed by caliper twice a week. […]

[5] = set-up: method as in PMID 25933211; details: clinical study; cited from earlier work
[6] = test system: melanoma brain metastases; details: MBM patients; cited from earlier work
[7] = Body weight during efficacy studies; type: in vivo, mice
Description: as §2

[8] = Abcb1a/b;Abcg2−/− mice, 10 mg·kg^−1 p.o.
[9] = Abcb1a/b;Abcg2−/− mice, 25 mg·kg^−1 p.o.
[10] = 10 mg/kg, Abcb1a/b;Abcg2−/− mice, 10 mg·kg^−1 p.o.
[11] = 10 mg/kg, WT mice, 10 mg·kg^−1 p.o. + elacridar 100 mg·kg^−1 p.o. 4 h before
[12] = 25 mg/kg, Abcb1a/b;Abcg2−/− mice, 25 mg·kg^−1 p.o.
[13] = 25 mg/kg, WT mice, 25 mg·kg^−1 p.o.
[14] = WT mice, 10 mg·kg^−1 p.o. + elacridar 100 mg·kg^−1 p.o. 4 h before

For `CCCS(=O)(=O)Nc1ccc(F)c(C(=O)c2c[nH]c3ncc(-c4ccc(Cl)cc4)cc23)c1F` [vemurafenib], the “AUCplasma 0–4 h” value [1, 8] was 56 ± 7.2 µg·mL/h, the “AUCplasma 0–24 h” value [1, 8] was 230 ± 35 µg·mL/h and the “AUCplasma 0–∞” value [1, 8] was 250 ± 49 µg·mL/h. For the same compound, the “CL/F (apparent clearance after oral administration)” value (shortened to “CL/F”) [1, 8] was 0.04 ± 0.006 L·kg/h, the “AUCplasma 0–4 h” value [1, 9] was 140 ± 16 µg·mL/h and the “AUCplasma 0–24 h” value [1, 9] was 530 ± 68 µg·mL/h. For the same compound, the “AUCplasma 0–∞” value [1, 9] was 610 ± 84 µg·mL/h, the “CL/F” value [1, 9] was 0.04 ± 0.006 L·kg/h and the Cmax [1, 10] was 17000 ± 1700 ng/mL. The Tmax [1, 10] was 2.8 ± 1.1 h, the half-life [1, 10] was 6.7 ± 1.4 h and the Tmax [1, 11] was 3.6 ± 0.9 h. The half-life [1, 11] was 5.8 ± 0.6 h, the Cmax [1, 11] was 12000 ± 1700 ng/mL and the Cmax [1, 12] was 41000 ± 4500 ng/mL. The Tmax [1, 12] was 1.9 ± 0.9 h, the half-life [1, 12] was 8.5 ± 1.2 h and the Cmax [1, 13] was 42000 ± 7700 ng/mL. The Tmax [1, 13] was 2.6 ± 1.3 h, the half-life [1, 13] was 2.1 ± 0.2 h and the “AUCplasma 0–4 h” value [1, 14] was 38 ± 5.7 µg·mL/h. The “AUCplasma 0–24 h” value [1, 14] was 180 ± 24 µg·mL/h, the “AUCplasma 0–∞” value [1, 14] was 190 ± 23 µg·mL/h and the “CL/F” value [1, 14] was 0.05 ± 0.006 L·kg/h. The “AUCplasma 0–4 h” value ([1]; WT mice, 25 mg·kg^−1 p.o.) was 147 ± 28 µg·mL/h, the “AUCplasma 0–24 h” value ([1]; WT mice, 25 mg·kg^−1 p.o.) was 390 ± 98 µg·mL/h and the “AUCplasma 0–∞” value ([1]; WT mice, 25 mg·kg^−1 p.o.) was 390 ± 99 µg·mL/h. For the same compound, the “CL/F” value ([1]; WT mice, 25 mg·kg^−1 p.o.) was 0.07 ± 0.017 L·kg/h, the survival ([2]; Abcb1a/b;Abcg2−/− mice, 10 mg·kg^−1 q.d. × 10d) was “not significantly extended” and the “tumor growth of intracranial A375 tumors” value ([2]; Abcb1a/b;Abcg2−/− mice, 10 mg·kg^−1 q.d. × 10d, first 3 days of treatment, regrowth under therapy afterwards) was “induced tumor regression”. For the same compound, the “tumor growth of intracranial A375 tumors” value ([2]; Abcb1a/b;Abcg2−/− mice, two cycles of 5 days of 25 mg·kg^−1 daily oral) was “induced regression and subsequent tumor stasis”, the survival ([2]; Abcb1a/b;Abcg2−/− mice, two cycles of 5 days of 25 mg·kg^−1 daily oral, vs vehicle) was “a survival difference was already established” and the “antitumor efficacy against intracranial A375 tumors with pharmacological P‐gp/BCRP inhibition vs Abcb1a/b;Abcg2−/− mice at same dose” value ([2]; WT mice, 10 mg·kg^−1 vemurafenib + 100 mg·kg^−1 elacridar) was “less efficacious”. The “tumor growth of intracranial A375 tumors” value ([2]; WT mice, 25 mg·kg^−1 q.d. × 10d) was “only reduced A375 growth speed”, the “brain–plasma ratio” value [3] was “around 0.02” and the “efficacy against subcutaneous A375 tumors, WT vs Abcb1a/b;Abcg2−/− mice” value [4] was “equally effective”. For the same compound, the “concentration in cerebrospinal fluid (CSF) as share of the plasma concentration” value [5] was less than 1%, the median overall survival [6] was 4.3 months and the body weight ([7]; Abcb1a/b;Abcg2−/− mice with intracranial A375, two cycles of 5 days of 25 mg·kg^−1 daily oral) was “without affecting body weight”. The body weight ([7]; intracranial A375, any treatment regimen (WT 25, WT 10 + elacridar, Abcb1a/b;Abcg2−/− 10 mg·kg^−1)) was “could not observe any weight loss” and the body weight ([7]; subcutaneous A375, 25 mg·kg^−1 in WT and 10 mg·kg^−1 in Abcb1a/b;Abcg2−/− mice, 13 days) was “did not result in body weight loss”.
